This experiment concerns the target Mitogen-activated protein kinase kinase kinase kinase 1 (Homo sapiens, UniProt Q92918). Description: Binding Assay: Lanth: For the binding assay, 4 ul 2×HPK1 and Eu-anti-GST antibody were added to each well of the assay plate using a Multidrop reagent dispenser. The solutions were incubated in a 23 C incubator for 1 h. To each well of the assay plate was added 4 ul 2× Tracer-222 using a Multidrop reagent dispenser. The solutions were again incubated in a 23 C incubator for 1 h. The results of the assay were read using an Envision plate reader with the following parameters: TR_FRET, 340ex/615 and 665em; 100 usec Delay; and 200 usec integration.

Molecules are shown by their SMILES. Values joined by “and” are separate entries in the source; they are usually repeats but may differ in a detail not shown here. Equal values may be shown once.

Broadly, the Ki is the equilibrium dissociation constant of an inhibitor or competing ligand from its target. A lower Ki goes with a stronger hold on the target.

Mitogen-activated protein kinase kinase kinase kinase 1, sequence (Q92918 whole entry): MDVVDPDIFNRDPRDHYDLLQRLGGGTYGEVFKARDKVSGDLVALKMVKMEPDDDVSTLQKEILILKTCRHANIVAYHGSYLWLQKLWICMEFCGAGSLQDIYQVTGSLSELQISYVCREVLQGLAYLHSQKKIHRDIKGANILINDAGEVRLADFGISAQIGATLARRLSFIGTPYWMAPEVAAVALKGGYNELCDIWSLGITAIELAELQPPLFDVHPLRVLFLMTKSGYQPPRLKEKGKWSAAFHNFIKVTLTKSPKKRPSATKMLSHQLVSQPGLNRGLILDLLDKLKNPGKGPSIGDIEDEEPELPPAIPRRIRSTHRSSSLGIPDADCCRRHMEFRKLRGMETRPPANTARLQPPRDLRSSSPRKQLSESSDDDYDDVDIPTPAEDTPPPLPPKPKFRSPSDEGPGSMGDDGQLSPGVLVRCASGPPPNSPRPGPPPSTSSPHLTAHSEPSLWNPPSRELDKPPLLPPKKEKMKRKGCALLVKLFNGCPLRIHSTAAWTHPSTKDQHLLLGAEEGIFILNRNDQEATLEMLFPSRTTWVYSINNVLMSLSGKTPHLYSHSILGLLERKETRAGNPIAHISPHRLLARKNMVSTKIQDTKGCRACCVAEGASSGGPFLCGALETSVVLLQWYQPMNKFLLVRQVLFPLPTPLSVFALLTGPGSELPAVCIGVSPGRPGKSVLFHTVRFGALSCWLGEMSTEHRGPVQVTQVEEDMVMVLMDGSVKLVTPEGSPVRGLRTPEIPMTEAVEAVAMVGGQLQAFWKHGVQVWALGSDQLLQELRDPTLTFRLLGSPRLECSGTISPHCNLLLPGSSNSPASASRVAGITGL

`Cc1cc(-n2cccn2)ncc1-c1cc2cc(NC(=O)[C@H]3C[C@@H]3c3cnn(C)c3)ncc2c(N)n1` returned an inhibitory constant (Ki) of 3.3 nM.
The compound `Cc1ccncc1-c1cc2cc(NC(=O)C3C[C@@H]3C(F)(F)F)ncc2c(N)n1` (some centres not stated) came in with an inhibitory constant (Ki) of 1.42 nM.
`Cc1ccncc1-c1cc2cc(NC(=O)[C@H]3[C@@H]4CC(N5CCOCC5)C[C@@H]43)ncc2c(N)n1` (some centres not stated): the affinity, expressed as Ki, was 0.972 nM.
With `CCc1ccncc1-c1cc2cc(NC(=O)[C@H]3C[C@@H]3C#N)ncc2c(N)n1` the figure was 1.31 nM and 0.583 nM; with `COC1CN([C@H]2C[C@@H]3[C@H](C2)[C@H]3C(=O)Nc2cc3cc(-c4cnccc4C)nc(N)c3cn2)C1`, 2.14 nM; with `Cc1ccncc1-c1cc2cc(NC(=O)[C@@H]3[C@H](C)[C@H]3CC#N)ncc2c(N)n1`, 0.188 nM.
With `CCc1ccncc1-c1cc2cc(NC(=O)[C@@H]3C[C@@H]3C#N)ncc2c(N)n1` the figure was 10.6 nM and 3.21 nM; with `Cc1cc(N2CCC2=O)ncc1-c1cc2cc(NC(=O)[C@H]3C[C@@H]3c3cnn(C)c3)ncc2c(N)n1`, 1.73 nM; with `Cc1ccncc1-c1cc2cc(NC(=O)[C@H]3[C@H](C)[C@@H]3CC#N)ncc2c(N)n1`, 6.01 nM.
As to `Cc1ccncc1-c1cc2cc(NC(=O)[C@@H]3[C@@H](C)[C@H]3CC#N)ncc2c(N)n1`, the inhibition constant (Ki) came out at 0.837 nM.
Turning to `Cc1cc(-c2ccn(C)n2)ncc1-c1cc2cc(NC(=O)[C@H]3C[C@@H]3c3cnn(C)c3)ncc2c(N)n1`, the inhibition constant (Ki) is 2.26 nM.
Under `Cc1ccncc1-c1cc2cc(NC(=O)C(C)C)ncc2c(N)n1` stands 29.8 nM.
The compound `COC(=O)c1cc(C)c(-c2cc3cc(NC(=O)[C@H]4C[C@@H]4c4cnn(C)c4)ncc3c(N)n2)cn1` came in with a Ki of 0.509 nM.
Under `Cc1ccncc1-c1cc2cc(NC(=O)[C@H]3[C@@H](C)[C@@H]3CC#N)ncc2c(N)n1` stands 0.763 nM; under `Cc1ccncc1-c1cc2cc(NC(=O)[C@@H]3C[C@H]3CN)ncc2c(N)n1` (racemic), 2.4 nM; under `Cn1cc([C@H]2C[C@@H]2C(=O)Nc2cc3cc(-c4cnc5c(=O)n(C)ncc5c4)nc(N)c3cn2)cn1` (racemic), 3.14 nM.
`Cc1cc2c(cc1-c1cc3cc(NC(=O)[C@@H]4C[C@@H]4F)ncc3c(N)n1)CC(=O)N2` (racemic) gave a Ki of 2.81 nM.
For `Cc1c(N)cncc1-c1cc2cc(NC(=O)[C@H]3C[C@@H]3C(F)(F)F)ncc2c(N)n1` (racemic), affinity was put at a Ki of 1.1 nM.
Turning to `Cc1ccncc1-c1cc2cc(NC(=O)[C@H]3C[C@@H]3CC#N)ncc2c(N)n1` (racemic), the affinity corresponds to a Ki of 0.57 nM.
`Cc1ccncc1-c1cc2cc(NC(=O)[C@@H]3C[C@H]3c3cnn(C)c3)ncc2c(N)n1` (racemic): the inhibition constant Ki was found to be 0.23 nM.
On to `Cc1ccncc1-c1cc2cc(Nc3cnn([C@H]4CN(C5COC5)CC[C@@H]4O)c3)ncc2c(N)n1` (racemic), for which the affinity, expressed as Ki, was 0.567 nM.
Compound `Cc1cc2[nH]cnc2cc1-c1cc2cc(NC(=O)[C@@H]3C[C@@H]3F)ncc2c(N)n1` (racemic) yielded a Ki of 7.9 nM.
`CCc1cc(=O)n(C)cc1-c1cc2cc(NC(=O)[C@@H]3C[C@@H]3F)ncc2c(N)n1` (racemic) yielded an inhibition constant (Ki) of 440 nM.
Consider `Cc1ccncc1-c1cc2cc(NC(=O)[C@@H]3C[C@@H]3C)ncc2c(N)n1` (racemic), for which the Ki stood at 2.3 nM.
The compound `CCc1cc(N)ncc1-c1cc2cc(NC(=O)[C@@H]3C[C@@H]3F)ncc2c(N)n1` (racemic) yielded a Ki of 5.76 nM.
With `N#CC[C@H]1C[C@@H]1C(=O)Nc1cc2cc(-c3cnccc3CCO)nc(N)c2cn1` (racemic) the figure was 0.501 nM; with `CCc1ccncc1-c1cc2cc(NC(=O)[C@@H]3C[C@H]3C(=O)C3CC(O)C3)ncc2c(N)n1` (mixture of isomers), 163 nM; with `Cc1cc(C)c(-c2cc3cc(NC(=O)[C@@H]4C[C@H]4C#N)ncc3c(N)n2)cc1C(N)=O` (racemic), 89 nM.
For `Cc1ccncc1-c1nc(N)c2cnc(NC(=O)[C@@H]3C[C@H]3c3cn[nH]c3)cc2c1F` (racemic), the affinity corresponds to a Ki of 0.19 nM.
Under `CCOc1ccncc1-c1cc2cc(NC(=O)[C@H]3C[C@@H]3C#N)ncc2c(N)n1` (racemic) stands 0.98 nM; under `CC(=O)OC[C@]1(C)C[C@@H]1C(=O)Nc1cc2cc(-c3cnccc3C)nc(N)c2cn1` (racemic), 14.6 nM; under `Nc1nc(-c2cncc3c2OCCN3)cc2cc(NC(=O)[C@@H]3C[C@@H]3F)ncc12` (racemic), 0.135 nM.
`Cc1c[nH]c(=O)cc1-c1cc2cc(NC(=O)[C@@H]3C[C@@H]3F)ncc2c(N)n1` (racemic) yielded an inhibition constant (Ki) of 6.5 nM.
The compound `Cc1c(-c2cc3cc(NC(=O)[C@H]4C[C@@H]4C#N)ncc3c(N)n2)cncc1C(F)F` (racemic) registered an inhibitory constant (Ki) of 39 nM.
Regarding `CC(=O)OC[C@@]1(C)C[C@@H]1C(=O)Nc1cc2cc(-c3cnccc3C)nc(N)c2cn1` (racemic), the inhibitory constant (Ki) amounted to 17.1 nM.
Under `C=Cc1c(-c2cnccc2C)nc(N)c2cnc(NC(=O)[C@H]3C[C@@H]3CC#N)cc12` (racemic) stands 0.225 nM; under `Nc1nc(-c2cncc3c2CCN3)cc2cc(NC(=O)[C@@H]3C[C@@H]3F)ncc12` (racemic), 0.154 nM; under `CCc1ccncc1-c1cc2cc(NC(=O)[C@@H]3C[C@@H]3C(N)=O)ncc2c(N)n1` (racemic), 25.8 nM.
`Cc1[nH]ncc1-c1cc2cc(NC(=O)[C@@H]3C[C@H]3C(F)(F)F)ncc2c(N)n1` (racemic) had a Ki of 16 nM.
As for `Cc1ccncc1-c1cc2cc(NCC3CC3(F)F)ncc2c(N)n1` (racemic), the affinity, expressed as Ki, was 61.3 nM.
The compound `Cn1ccc2cncc(-c3cc4cc(NC(=O)[C@@H]5C[C@@H]5F)ncc4c(N)n3)c21` (racemic) returned a Ki of 101 nM.
With `Cc1ccncc1-c1cc2cc(NC(=O)[C@H]3C[C@@H]3CO)ncc2c(N)n1` (racemic) the figure was 1.1 nM; with `CCc1cc(OC)ncc1-c1cc2cc(NC(=O)[C@@H]3C[C@@H]3F)ncc2c(N)n1` (racemic), 4.88 nM; with `Cc1cc(C(=O)N(C)C)ncc1-c1cc2cc(NC(=O)[C@H]3C[C@@H]3c3cnn(C)c3)ncc2c(N)n1` (racemic), 6.14 nM.
With `Cc1ccncc1-c1nc(N)c2cnc(NC(=O)[C@H]3C[C@@H]3C#N)cc2c1F` (racemic), the Ki is 4.4 nM.
On to `CCC1CCCN1c1cc2cc(NC(=O)[C@@H]3C[C@@H]3F)ncc2c(N)n1` (mixture of isomers), for which the Ki was 11.7 nM and 10.3 nM.
`Nc1nc(-c2cncc3c2OCC(=O)N3)cc2cc(NC(=O)[C@@H]3C[C@@H]3F)ncc12` (racemic) returned an inhibitory constant (Ki) of 1.77 nM.
For the compound `COCCc1ccncc1-c1cc2cc(NC(=O)[C@H]3C[C@@H]3C#N)ncc2c(N)n1` (racemic), the Ki was determined as 21.2 nM.
With `Cc1cnc(CO)cc1-c1cc2cc(NC(=O)[C@@H]3C[C@@H]3F)ncc2c(N)n1` (racemic) the figure was 18.3 nM; with `Cc1ccncc1-c1cc2cc(NC(=O)[C@H]3C[C@@H]3c3ncccn3)ncc2c(N)n1` (racemic), 10 nM; with `Cc1ccncc1-c1cc2cc(NC(=O)[C@@H]3C[C@H]3c3cnsc3)ncc2c(N)n1` (racemic), 0.15 nM.
Under `Cc1cnc(C#N)cc1-c1cc2cc(NC(=O)[C@@H]3C[C@@H]3F)ncc2c(N)n1` (racemic) stands 22.5 nM.
The compound `Cc1ccnc(C)c1-c1cc2cc(NC(=O)[C@@H]3C[C@@H]3F)ncc2c(N)n1` (racemic) registered a Ki of 5.03 nM.
In turn, `Cc1ccncc1-c1nc(N)c2cnc(NC(=O)[C@@H]3C[C@H]3c3cn[nH]c3)cc2c1Cl` (racemic) gave a Ki of 0.047 nM.
With `Cc1ccncc1-c1cc2cc(NC(=O)C3CC34CC4)ncc2c(N)n1` (racemic), the Ki was 1.35 nM.
Turning to `Cc1cc(C(C)(C)O)ncc1-c1cc2cc(NC(=O)[C@@H]3C[C@@H]3F)ncc2c(N)n1` (racemic), affinity was put at a Ki of 41.7 nM.
With `Cc1ncc(N)c(C)c1-c1cc2cc(NC(=O)[C@@H]3C[C@H]3C)ncc2c(N)n1` (racemic), the Ki was 3.2 nM.
`Cc1ccncc1-c1cc2cc(NC(=O)[C@@H]3C[C@@H]3F)ncc2c(N)n1` (racemic): the Ki was 0.38 nM.
The compound `Cc1ccnc(-c2ccccc2)c1-c1cc2cc(NC(=O)[C@H]3C[C@@H]3CC#N)ncc2c(N)n1` (racemic) displayed a Ki of 0.051 nM.
For the compound `Cc1ccncc1-c1cc2cc(NC(=O)[C@@H]3C[C@H]3C(F)(F)F)ncc2c(N)n1` (racemic), affinity was put at a Ki of 1.4 nM.
Take `N#C[C@@H]1C[C@H]1C(=O)Nc1cc2cc(-c3cnccc3C(F)(F)F)nc(N)c2cn1` (racemic): the inhibitory constant (Ki) is 6.49 nM.
For `C[C@@H]1C[C@H]1C(=O)Nc1cc2cc(-c3cnn(C)c3)nc(N)c2cn1` (racemic), the affinity, expressed as Ki, was 1.85 nM.
Consider `Cn1cc([C@H]2C[C@@H]2C(=O)Nc2cc3cc(-c4cnc(N)c(C(F)(F)F)c4)nc(N)c3cn2)cn1` (racemic), for which the Ki is 11.8 nM.
As for `Cc1nn(C)c(C)c1-c1cc2cc(NC(=O)[C@H]3C[C@@H]3C(F)(F)F)ncc2c(N)n1` (racemic), the affinity corresponds to a Ki of 12 nM.
`Cc1ccncc1-c1cc2cc(NC(=O)[C@@H]3C[C@]34CCNC4)ncc2c(N)n1` (racemic) came in with a Ki of 6.8 nM.
With `CCC1CCCN1c1cc2cc(NC(=O)[C@H]3C[C@H]3F)ncc2c(N)n1` (mixture of isomers), the affinity, expressed as Ki, was 172 nM.
`Cc1ccc(F)cc1-c1cc2cc(NC(=O)[C@H]3C[C@@H]3c3cnn(C)c3)ncc2c(N)n1` (racemic) returned an inhibition constant (Ki) of 0.113 nM.
Compound `Cc1cc(C(=O)OCc2ccccc2)ncc1-c1cc2cc(NC(=O)[C@H]3C[C@@H]3c3cnn(C)c3)ncc2c(N)n1` (racemic) showed a Ki of 1.17 nM.
Under `Cc1ccncc1-c1cc2cc(NC(=O)[C@@H]3C[C@H]3c3cc[nH]n3)ncc2c(N)n1` (racemic) stands 0.58 nM.
On to `CC(O)Cc1ccncc1-c1cc2cc(NC(=O)[C@H]3C[C@@H]3C#N)ncc2c(N)n1` (mixture of isomers), for which affinity was put at a Ki of 7.28 nM.
In turn, `Cc1ncc(-c2cc3cc(NC(=O)[C@@H]4C[C@H]4C#N)ncc3c(N)n2)n1C` (relative stereo) had a Ki of 18.9 nM.
Under `Cc1cc(C(=O)NCC(F)(F)F)ccc1-c1cc2cc(NC(=O)[C@@H]3C[C@H]3C#N)ncc2c(N)n1` (relative stereo) stands 8.1 nM.

(Values after ChEMBL document CHEMBL5728527, “Naphthyridines as inhibitors of HPK1” (2021).)
